Source: patent publication US8835644B2, “Broad spectrum benzothiophene-nitrothiazolide and other antimicrobials” (University of Virginia Patent Foundation, priority 2009, dated 2014)
Converted amounts (≈) assume the structure as drawn. Like-named read-outs stand apart in the source and are kept apart here.

How the values were obtained:
[1] = system: EAEC strains 042 and 17-2; conditions: previous studies (38), cited from earlier work
[2] = system: EAEC JM221 (Type 1 fimbriae); assay: Hemagglutination of guinea pig erythrocytes, EAEC JM221; format: cell-based, Escherichia coli; conditions: EAEC JM221 grown statically in LB 48 h with 20 μg/ml NTZ; further: key: +++ = strong hemagglutination reaction; + weak; − no hemagglutination
Experimental: HA assays were performed in 96-well microplates as described in (1). Bacteria grown over night without shaking (MinA-G medium with and without 25 μg/ml NTZ) were suspended in PBS and diluted to OD660 of […] was mixed with an equal volume of 3% (vol/vol) sheep erythrocyte suspension containing 1% mannose, except when type I fimbriae producing strains were assayed. In the latter, bacteria were grown statically in LB medium (with and without NTZ) for 48 h and HA was determined with guinea pig erythrocytes. HA reactions were incubated at 4° C. for […] HA was determined visually against controls receiving no NTZ. All assays were prepared in triplicate and repeated twice.

[3] = system: C. jejuni; assay: MIC testing by broth dilution, C. jejuni; format: cell-based, Campylobacter jejuni
Summary of the method: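 Planktonic E. coli (LB) and S. epidermidis (Trypticase Soy), plus C. jejuni (Brain Heart Infusion), were exposed to a dilution series starting at 32 μg/ml. The C. difficile values are anaerobic zone ratios against NTZ.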

[4] = Zn2+ chelation, spectrophotometric and 1H NMR; format: physicochemical; conditions: 1H NMR in DMSO-d6, ratios 1:1, 1:2, 2:1, up to 72 h
Experimental: To test direct binding of Zn^2+ by NTZ in solution, we tested a range of concentrations of both NTZ and TIZ and scanned the solutions spectrophotometrically using an OLIS Cary-14 (OLIS Instruments Co., Bogart Ga.). Absolute spectra were recorded over a UV/Vis range from 220 nm to 700 nm. Spectral shifts in the 418 nm range would be attributable to changes in resonance within the thiazole ring that would result if Zn^2+ were coordinated by NTZ (9).
Chelation experiments were also performed utilizing NTZ and TIZ in DMSO-d6 (0.5 mL) with ZnCl2 using a 300 MHz Varian MercuryPlus spectrometer. Specifically, three ratios of NTZ to Zn^2+ were investigated (1:1, 1:2, 2:1) where NTZ was held constant (4 mg, 13 μmoles) while varying ZnCl2 (1.8 mg, 13 μmoles or 3.5 mg, 26 μmoles) or NTZ (8 mg, 26 μmoles) with ZnCl2 (1.8 mg, 13 μmoles). Three ratios of TIZ to Zn^2+ were also investigated (1:1, 1:2, 2:1) where TIZ was held constant (4 mg, 15 μmoles) while varying ZnCl2 (2.1 mg, 15 μmoles or 4.1 mg, 30 μmoles) or TIZ (8 mg, 30 μmoles) with ZnCl2 (2.1 mg, 15 μmoles). ^1H NMR spectra were then obtained after mixing for 5 min, 24 h, 48 h, and 72 h at room temperature. Any chelation event would be evidenced by shifting or broadening of the thiazole and benzene protons as well as loss of the amide proton.

[5] = system: S. epidermidis 9142; assay: Biofilm dispersal assay; format: cell-based, Staphylococcus epidermidis; conditions: drug added to 4 h biofilm
[6] = system: EAEC strains 042 and 17-2; assay: Growth and MIC of E. coli / EAEC strains in LB and MinA-G medium; format: cell-based; conditions: Escherichia coli; for MIC: static
Experimental: (§1) EAEC strains were grown overnight in MinA-G medium at 37° C. with shaking and used to inoculate fresh MinA-G medium containing a range of NTZ concentrations (0, 5, 10, 15, 20, and 25 μg/ml) to a starting OD600 of 0.1. Growth was recorded as the absorbance at 600 nm at 30-minute intervals over a period of eight hours. […] Motility was assessed in LB soft agar (0.3% agar) containing 0 to 25 μg/ml of NTZ. The diameter of outward spreading was measured daily and inhibition computed as percent of control.

[7] = system: EAEC; assay: Motility in soft agar; format: cell-based, Escherichia coli; conditions: concentrations that inhibited biofilm formation
Experimental: as §1

[8] = system: C. difficile; assay: MIC by agar dilution, C. difficile; format: cell-based, Clostridium difficile
Experimental: A standard broth dilution protocol was used in 96 well microplates containing a standard dilution of the microorganism to be tested in 100 microliters of the appropriate medium. Appropriate medium: E. coli, LB medium; Staphylococcus strains, Trypticase Soy; and for H. pylori and C. jejuni, Brain Heart Infusion. The compounds to be tested were set at 32 μg/ml in 200 microliters in well one and then serially diluted to provide a range from 32 to 0.06. The wells were scored visually at 24 h. The well where there was no growth was recorded as the MIC. […]
Representative compounds of the invention were tested in a series of assays against a series of organisms as described above. […] The organisms tested include, C. difficile, H. pylori, C. jejuni, MRSA, S. epidermidis, and E. coli. S. epidermidis and E. coli were tested in the plank and biofilm assay. A disk diffusion assay was also used for C. difficile. Direct PFOR enzyme assays were also performed. All analogues and derivatives were not tested on every organism in every type of assay (the “-” in each table means that it was not tested).

For `CC(=O)Oc1ccccc1C(=O)Nc1ncc([N+](=O)[O-])s1` [Nitazoxanide, 2-(acetyloxy)-N-(5-nitro-2-thiazolyl)benzamide, reference compound], the “Concentrations inhibitory for growth on MinA base medium” value ([1]; E. coli papillation assay) is given as “higher than 15 μg/ml”, the “MIC in LB medium, previous studies” value [1] is given as > 64 µg/mL and the “HA (guinea pig erythrocytes), bacterial OD660 0.5” value [2] is given as “−”. For the same molecule, the “HA (guinea pig erythrocytes), bacterial OD660 1.0” value [2] was “−”, the “HA (guinea pig erythrocytes), bacterial OD660 1.5” value [2] was “+” and the MIC ([3]; 2-amino-3,5-dinitrothiophene analogues table, read-out: MIC C. jejuni) was 39.1 µM (≈ 12 µg/mL). It also gave an MIC ([3]; Campylobacter jejuni, Furan analogues table, read-out: MIC C. jejuni) of 39.1 µM (≈ 12 µg/mL), an MIC ([3]; Campylobacter jejuni, broth dilution, Brain Heart Infusion, 24 h, read-out: MIC (μM) C. jejuni) of 39.1 µM (≈ 12 µg/mL) and an MIC ([3]; Thiophene analogues table, read-out: MIC C. jejuni) of 39.1 µM (≈ 12 µg/mL). For the same molecule, the “Chelation with ZnCl2” value [4] was “No chelation”, the “Dispersal of preformed biofilm” value [5] was “not dispersive” and the IC50 ([6]; 042AND172, read-out: Concentration for 50% inhibition of aerobic growth, EAEC 17-2, MinA-G, estimated) was 20 to 25 µg/mL. For the same molecule, the IC50 ([6]; 042AND172, read-out: Concentration for 50% inhibition of aerobic growth, EAEC 042, MinA-G, estimated) was 15 to 20 µg/mL, the MIC ([6]; 042AND172, E. coli strains, rich LB medium, read-out: MIC in LB medium) was > 64 µg/mL and the MIC50 ([6]; 042AND172, EAEC strains, static conditions) was ~20 µg/mL. For the same molecule, the MIC ([6]; 042AND172, minimal medium with glucose, read-out: MIC in MinA-G medium) was ~32 µg/mL, the “Effect on swarming motility in soft agar” value [7] was “no effect” and the MIC ([8]; 2-amino-3,5-dinitrothiophene analogues table, read-out: MIC C. difficile) was 52.1 µM (≈ 16 µg/mL). For the same molecule, the MIC ([8]; Clostridioides difficile, Furan analogues table, read-out: MIC C. difficile) was 52.1 µM (≈ 16 µg/mL), the MIC ([8]; Clostridioides difficile, agar dilution, anaerobic, Wilkins Chalgrin agar, read-out: MIC (μM) C. difficile) was 52.1 µM (≈ 16 µg/mL) and the MIC ([8]; Thiophene analogues table, read-out: MIC C. difficile) was 52.1 µM (≈ 16 µg/mL).
